Laboratory results: US11964938B2, “3-phenyl-4-hexynoic acid derivatives as GPR40 agonists” (CELON PHARMA S.A., priority 2018, dated 2024)
pIC50: −log10 of the molar value. Where a name gives a salt, the structure may show the parent alone.

Assays:
type 2 diabetes patients = details: cited from earlier work
MRP4 = target: T1, MRP4 (Homo sapiens, UniProt O15439); test: Vesicular transport inhibition assay, MRP4; assay type: biochemical; details: membrane vesicles from HEK293 cells
T1 construct: host or cells: HEK293 (membrane vesicles)
T1 sequence (O15439 1-1325): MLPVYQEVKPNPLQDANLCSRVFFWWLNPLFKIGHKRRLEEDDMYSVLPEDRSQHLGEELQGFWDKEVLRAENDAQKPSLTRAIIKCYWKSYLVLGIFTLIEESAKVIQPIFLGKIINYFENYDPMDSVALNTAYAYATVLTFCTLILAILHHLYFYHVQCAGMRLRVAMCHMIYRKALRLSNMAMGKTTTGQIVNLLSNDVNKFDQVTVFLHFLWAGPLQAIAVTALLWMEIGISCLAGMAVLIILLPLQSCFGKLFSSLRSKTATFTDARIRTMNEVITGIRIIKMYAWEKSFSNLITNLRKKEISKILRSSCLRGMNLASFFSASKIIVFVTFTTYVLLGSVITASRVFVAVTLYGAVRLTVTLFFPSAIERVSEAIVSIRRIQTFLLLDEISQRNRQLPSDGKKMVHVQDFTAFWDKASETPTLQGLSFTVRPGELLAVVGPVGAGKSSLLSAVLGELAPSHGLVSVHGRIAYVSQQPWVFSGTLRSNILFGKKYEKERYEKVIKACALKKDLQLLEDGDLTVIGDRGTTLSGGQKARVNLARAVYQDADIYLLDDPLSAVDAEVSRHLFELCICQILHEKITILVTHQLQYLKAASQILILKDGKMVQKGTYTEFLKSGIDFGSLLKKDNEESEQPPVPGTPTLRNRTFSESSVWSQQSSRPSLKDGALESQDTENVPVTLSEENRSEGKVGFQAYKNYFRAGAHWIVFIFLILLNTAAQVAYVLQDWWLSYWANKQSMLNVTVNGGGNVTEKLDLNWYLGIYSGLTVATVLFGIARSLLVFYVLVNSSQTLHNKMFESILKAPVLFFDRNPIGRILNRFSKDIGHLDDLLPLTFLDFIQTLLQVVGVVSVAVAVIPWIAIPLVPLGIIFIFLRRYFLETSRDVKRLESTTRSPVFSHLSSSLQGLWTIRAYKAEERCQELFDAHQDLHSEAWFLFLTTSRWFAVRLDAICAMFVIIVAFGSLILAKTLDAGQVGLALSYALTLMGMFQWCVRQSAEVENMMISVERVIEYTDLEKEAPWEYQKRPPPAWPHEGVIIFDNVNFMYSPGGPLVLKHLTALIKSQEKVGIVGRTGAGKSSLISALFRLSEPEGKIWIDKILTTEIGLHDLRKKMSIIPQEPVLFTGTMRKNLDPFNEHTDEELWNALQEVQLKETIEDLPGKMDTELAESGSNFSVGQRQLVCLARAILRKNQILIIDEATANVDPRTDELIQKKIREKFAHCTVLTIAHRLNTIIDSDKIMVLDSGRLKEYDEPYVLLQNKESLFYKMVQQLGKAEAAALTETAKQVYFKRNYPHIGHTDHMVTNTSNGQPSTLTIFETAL
Protocol: Experiment B4: Bile Acid Transporters Inhibition in the Liver. […] The compound was tested on a panel of 10 transporters: BSEP, MRP2, MRP3, MRP4 in a vesicular transport inhibition assay and NTCP, OAT1, OAT2v1, OATP1A2, OATP1B1, OATP1B3 in an uptake transporter inhibition assays. Vesicular transport inhibition assay was performed on membrane vesicles isolated from mammal HEK293 cells overexpressing human ABC transporters. Tested compound were incubated with vesicles and substrates for respective tested transporters. Incubation was performed in the presence of 4 mM ATP or AMP in order to differentiate between uptake by a transporter and passive diffusion into vesicles. In the case of MRP2 and MRP3, reactions were performed in the presence of 2 mM glutathione. Tested compounds were added to the reaction mixture dissolved in 0.75 μl of a solvent (1% of final incubation volume). Reaction mixtures were preincubated for 15 minutes at 37±1° C. Reactions were started by the addition of 25 μl of 12 mM MgATP (or 12 mM AMP) in test buffer, as a background control, separately preincubated.

[1] = tested on: Wistar HAN Crl:WI (HAN) rats; test: Glucose tolerance test in vivo on rats; design: species or system rat; details: 10 mg/kg oral single dose, blood
Protocol: Experiment B3: Glucose Tolerance Test In Vivo on Rats.
To evaluate glucose lowering effect of the compounds in in vivo study, glucose tolerance test (GTT) was performed. The study was performed on male outbred Wistar HAN Crl:WI (HAN) rats from Charles River, weight about 250-300 g, 8-10 weeks old. Rats were starved for 12 hours (with free access to water).
At time point t=0 animals were given orally a single dose of a compound (by a gastric tube) and immediately (t=0) and after 6 hour (t=6 h) intraperitoneal (i.p.) glucose bolus ([…]). At time points t=0 (just before oral administration of the compounds and intraperitoneal glucose administration), 0.25, 0.5, 1, 2, 2.5, 3, 6, 6.25, 7, 8, and 9 h blood samples from tail vein were collected from each animal for glucose level determination using Accu-chek glucometer (Roche Diagnostics) and additionally at t=0.25, 0.5, 1, 2, 2.5, and 3 h blood samples from tail vein were collected for insulin level measurement using ELISA test (Mercodia).
Tested compound were prepared in 5% DMSO/40% PEG300/55% PBS vehicle and administered at the dose of 10 mg/kg body weight in a volume of 0.5 ml/100 g body weight. After 4 hours after tested compound administration animals were given standard diet to the cages. Decrease of AUC value for glucose level in blood was calculated and the results for selected compounds of the invention are presented in Table 5. Analysis was performed using GraphPad prism software.

[2] = tested on: diabetes STZ-treated mice; test: Von Frey test on diabetes STZ-treated mice (tactile allodynia); assay type: in vivo, mouse; details: 60 minutes after administration, mean of group
Protocol: Experiment B5: Von Frey Test on Diabetes STZ-Treated Mice.
Tactile allodynia was assessed by electronic von Frey apparatus (Bioseb) equipped with a flexible filament. Reaction to stimuli was assessed using growing applied pressure (from 0 to 10 g) on a plantar side of the hind foot of mice. Pregabalin was a control, as reference healthy mice with preserved normal response to the stimuli were used. In the day of the experiment, mice were placed separately in cages with a wire mesh bottom for 1 h for habituation to experimental conditions. After habituation period, each mouse was treated 3 times alternately, with 30 s intervals between each measurement, to obtain starting values (before administration of the compound) of pain sensitivity. […] The results are presented in Table 7 as mean value for all mice in a given group (n=7-10).

Row | SMILES | side effects (type 2 diabetes patients; clinical development, associated with inhibition of bile acids transport) | glucose levels (type 2 diabetes patients; phase 3 clinical trials, type 2 diabetes patients) | pIC50 (MRP4) | AUC for glucose (0-540 min.) ([1]; i.p. glucose bolus at t=0 and 6 h) | AUC for insulin (0-180 min.) ([1]; i.p. glucose bolus) | Applied pressure causing the response, sick animal (neuropathic) after compound administration ([2]; 3 mg/kg p.o.) [g] | Applied pressure causing the response, sick animal (neuropathic) after compound administration ([2]; 10 mg/kg p.o.) [g] | Applied pressure causing the response, sick animal (neuropathic) after compound administration ([2]; 30 mg/kg p.o.) [g]
1 | Cc1cc(OCCCS(C)(=O)=O)cc(C)c1-c1cccc(COc2ccc3c(c2)OC[C@H]3CC(=O)O)c1 [Example R1, 2[(3S)-6-({3-[4-(3-methanesulfonylpropoxy)-2,6-dimethylphenyl]-phenyl}methoxy)-2,3-dihydro-1-benzofuran-3-yl]acetic acid, reference compound] | side effects on the liver | ability to reduce glucose levels | 5.16 | 30950.6 | 210.5 |  |  | 
2 | CC#C[C@@H](CC(=O)O)c1ccc(OCC(C)=C(C)C)cc1 [Example S1, (3S)-3-{4-[(2,3-dimethylbut-2-en-1-yl)oxy]phenyl}hex-4-ynoic acid calcium salt] |  |  | 3.88 |  |  | 1.85 | 2.34 | 3.36
